Results: patent publication US5654422A, “Acylated γ-cyclodextrins” (priority 1994, dated 1997)
Read-outs that look alike come from different tables or passages of the source.

Legend:
[1] = cited from earlier work
[2] = cited from earlier work; remark: listed apart in the source
[3] = G. Antlsperger, 6th International Symposium on Cyclodextrins, 1992; cited from earlier work
[4] = zahn-wellens test, 336 h
Procedure: The biological degradability was determined by means of the Zahn-Wellens Test (OECD Guidelines for testing of Chemicals 302B, Adopted by the Council on 17th Jul. 1992).

Compound: OC[C@H]1O[C@@H]2O[C@H]3[C@H](O)[C@@H](O)[C@@H](O[C@H]4[C@H](O)[C@@H](O)[C@@H](O[C@H]5[C@H](O)[C@@H](O)[C@@H](O[C@H]6[C@H](O)[C@@H](O)[C@@H](O[C@H]7[C@H](O)[C@@H](O)[C@@H](O[C@H]8[C@H](O)[C@@H](O)[C@@H](O[C@H]9[C@H](O)[C@@H](O)[C@@H](O[C@H]1[C@H](O)[C@H]2O)O[C@@H]9CO)O[C@@H]8CO)O[C@@H]7CO)O[C@@H]6CO)O[C@@H]5CO)O[C@@H]4CO)O[C@@H]3CO [γ-CD, γ-cyclodextrin]
- precipitation of complexes at higher concentrations ([1]; U.S. Pat. No. 4,764,604): frequently precipitate out at higher concentrations
- solubilizing capacity / properties ([1]; prior art statement): comparatively low
- solubility in water ([2]; native γ-cyclodextrin): 18.7 % by weight
- solubility in water ([2]; prior art statement): comparatively poorly soluble in water
- toxicological properties [3]: favorable toxicological properties

Compound: Acetyl-γ-CD (DS, 0.83) [Ex. 2 Ac-gamma-CD(0.83)]
- Degradation ZaWe-14d [4]: 98%

Compound: Methyl-γ-cyclodextrin (DS,1.8) [Me-gamma-CD(1.8)]
- Degradation ZaWe-14d [4]: 14%

Compound: hydroxypropyl-γ-cyclodextrin [Hp-gamma-CD(0.9)]
- Degradation ZaWe-14d [4]: 25%
